The conditions of series [1]: USGS estimate; cited from earlier work.
The conditions of series [2]: cited from earlier work.
Series [3] is described as follows: batch mode homogeneous catalytic reductive dechlorination of endosulfan in contaminated water, titanium (III) citrate as bulk electron donor. Particulars: after 72 hours of reaction, about 0.010 mM catalyst, 0.32 ppm endosulfan initially, room temperature. On the procedure: 40 milliliter (0.04 liter) glass vials (usually filled with about 25 milliliters of reaction solution), fitted with Teflon®-clear silicon sealing cups, were used at room temperature (between about 20° C. and about 25° C.) and atmospheric pressure. Contents of each glass vial (batch reactor) were mixed by securing the glass vial onto an orbital shaker (model TS-600, from MRC, Israel) having automatic (mixing) speed control. Multiple replicates of each glass vial (batch reactor) filled with reaction solution were prepared at the beginning of an experiment.
The glass vial batch mode reaction systems were prepared under oxygen free atmosphere conditions, using an anaerobic chamber (Coy Laboratory Products, MI, USA) containing an oxygen free atmosphere composed of a mixture of nitrogen [N2] gas and hydrogen [H2] gas, having a 95/5 molar or partial pressure ratio.
GC/MS was used for monitoring concentration over time, of endosulfan (as α and β isomers) in the endosulfan contaminated water, during the batch mode homogeneous catalytic reactions.
The extracted organic phase was then transferred to a gas chromatograph vial and analyzed for the presence of the endosulfan (as α and β isomers) contaminant.
The reactions were performed at room temperature (between about 20° C. and about 25° C.) and atmospheric pressure.
A volume of 25 milliliter (0.025 liter) was taken from the appropriate stock solution of water contaminated with endosulfan and added to the empty 40 milliliter glass vial (batch reactor), for providing an initial concentration of 0.32 mg endosulfan per liter contaminated water, or 0.32 ppm endosulfan in the contaminated water. This procedure was repeated, for preparing at least two glass vials (batch reactors) for each experiment.
Reducing conditions were not naturally prevalent in the endosulfan contaminated water in the glass vials (batch reactors) for effectively enabling the phenomena, mechanisms, and processes of the electron transfer mediated (homogeneous) catalytic reductive dehalogenation of the endosulfan contaminant in the contaminated water. Thus, reducing conditions in the endosulfan contaminated water were anthropogenically produced by exposing the endosulfan contaminated water to titanium (III) citrate [Ti(OC(CH2COOH)2COOH] as the bulk electron donor or reducing agent, immediately before exposing the endosulfan contaminated water to the catalytically effective amount of each respective above stated metalloporphyrin complex, or metallocorrin complex, electron transfer mediator (homogeneous catalyst).
The pH of the solution was then adjusted to the desired value (e.g., 9.0) by adding small amounts of NaOH concentrated solution to each glass vial (batch reactor).
Then, an appropriate volume was taken from each respective above stated 2 mM metalloporphyrin complex, or metallocorrin complex, stock solution, and added to each glass vial (batch reactor) containing endosulfan contaminated water and titanium (III) citrate, for providing a concentration of about 0.010 mM metalloporphyrin complex, or metallocorrin complex, electron transfer mediator (homogeneous) catalyst in the endosulfan contaminated water. At this point, the glass vials were sealed, and transferred to the orbital shaker.
The contents, i.e., the endosulfan contaminated water containing the titanium (III) citrate as bulk electron donor or reducing agent and the metalloporphyrin complex, or metallocorrin complex, electron transfer mediator (homogeneous) catalyst, in each glass vial (batch reactor), were continuously mixed by securing each glass vial onto the orbital shaker set at a mixing speed of 150 rpm during the entire extent of time or duration of reaction.
For each metalloporphyrin complex, or metallocorrin complex, GC/MS analytical samples were prepared after 72 hours from each of at least two glass vials containing the endosulfan contaminated water of the batch mode homogeneous catalytic reductive dechlorination reaction.

Series [4] can be described thus: partitioning (adsorption and desorption) of electron transfer mediators on/off geological matter. In kind it is physicochemical. Particulars: Bet Dagan soil, room temperature; for Adsorption (%) of (ETM) after 10 days: aqueous mixture; for Desorption (%) of (ETM) after 10 days: fresh water replaced. On the procedure:
Bet Dagan soil was obtained from the site of the Bet Dagan Agricultural Research Organization campus, Bet Dagan, Israel. The Bet Dagan soil was sieved to a size of 60 mesh, and maintained in a dry air environment until use.
(§1) 40 milliliter (ml) (0.04 liter) glass vials (filled with 10 milliliters, of solution), were used at room temperature (between about 20° C. and about 25° C.) and atmospheric pressure, as the vessel or container, for containing the aqueous mixtures of the (partitioning) electron transfer mediator (ETM)—geological matter (soil or clay).
(§2) Ultraviolet and visible (UV/VIS) absorption spectrometry was used for measuring and determining the quantity (concentration), after a time period of 10 days each of (ETM) adsorption and desorption, of each (partitioning) electron transfer mediator (ETM) in the aqueous (liquid) phase of each respective electron transfer mediator (ETM)—geological matter (soil or clay) aqueous mixture. Multiple samples of the aqueous (liquid) phase of each mixture were taken from each respective glass vial (partitioning vessel).
(§3) The UV/VIS absorption spectrometer was a Varian, Cary 100, operative according to double beam analysis. Concentrations of the [TBSP-Ni], hematoporphyrin-Cobalt, and vitamin B12, electron transfer mediators (ETMs), were measured at absorption wavelengths of 527 nanometers (nm), 413 nanometers (nm), and 548 nanometers (nm), respectively.
(§4) The electron transfer mediator (ETM)—geological matter (soil or clay) partitioning experiments were performed at room temperature (between about 20° C. and about 25° C.) and atmospheric pressure.
(§5) Each prepared 2 mM metalloporphyrin complex, or metallocorrin complex, (ETM) aqueous stock solution, was diluted by a ratio of 1/10 or 1/100 with the distilled deionized filtered water, for forming respective diluted (ETM) stock solutions.
(§6) For each diluted (ETM) stock solution, corresponding to each respective electron transfer mediator (ETM), an amount of each type of geological matter, i.e., Bet Dagan soil, kaolinite clay, and montmorillonite clay, was weighed, and added to a separate glass vial (partitioning vessel). (ETM) Control solutions remained absent of any geological matter. […]
(§7) The ‘adsorption mode’ analytical samples were then analyzed by the above described (UV/VIS) absorption spectrometry procedure, for determining the quantity (concentration) of the [TBSP-Ni], hematoporphyrin-Cobalt, and vitamin B12, electron transfer mediator (ETM), present (i.e., remaining) in the aqueous (liquid) phase of each respective electron transfer mediator (ETM)—geological matter (soil or clay) aqueous mixture. […]

Test in series [5]: as above
In kind it is physicochemical. To be noted: Kaolinite clay, room temperature; for Adsorption (%) of (ETM) after 10 days: aqueous mixture; for Desorption (%) of (ETM) after 10 days: fresh water replaced. On the procedure: Kaolinite clay, ‘purum, natural’ grade, was obtained from Fluka.
as §1, §2, §3, §4, §5, §6
as §7, with “mixture. Such analysis and determination corresponded to quantitatively measuring and determining the extent that the respective electron transfer mediator (ETM) left the aqueous (liquid) phase and ‘adsorbed’ onto the respective geological matter (soil or clay) (solid) phase. The (ETM) Control solutions were similarly analyzed.” for “mixture.”

Test in series [6]: as above
In kind it is physicochemical. Particulars: Montmorillonite clay, room temperature; for Adsorption (%) of (ETM) after 10 days: aqueous mixture; for Desorption (%) of (ETM) after 10 days: fresh water replaced. How it is done: Montmorillonite clay, 10-12% impurities, was obtained from Fluka.
as §1, §2, §3, §4, §5, §6
as §7, with “mixture. Such analysis and determination corresponded to quantitatively measuring and determining the extent that the respective electron transfer mediator (ETM) left the aqueous (liquid) phase and ‘adsorbed’ onto the respective geological matter (soil or clay) (solid) phase. The (ETM) Control solutions were similarly analyzed.” for “mixture.”

As for `CCNc1nc(Cl)nc(NC(C)C)n1` [Atrazine, atrazine], in series [1], the “persistence in deep lakes” value is recorded as “exceed 10 years”.

In the case of `Clc1ccc(C(c2ccc(Cl)cc2)C(Cl)(Cl)Cl)cc1` [DDT, DichloroDiphenylTrichloroethane], in series [2] (ratio DDT / aldicarb), the “partition coefficient, Kd, relative to aldicarb” value is “roughly 20,000 times”. For the same compound, in series [2] (ratio DDT / atrazine), the “partition coefficient, Kd, relative to atrazine” value was ~1,500 times.

As to `C=Cc1c(C)c2cc3[nH]c(cc4nc(cc5nc(cc1[nH]2)C(C)=C5CCC(=O)[O-])C(CCC(=O)[O-])=C4C)c(C)c3C=C.[Co+2]` [Protoporphyrin IX-Co, protoporphyrin IX-Cobalt], in series [3], the “Normalized Endosulfan Concentration (%) α isomer” value was 31.5% and the “Normalized Endosulfan Concentration (%) β isomer” value is given as 37.8%.

Turning to `O=S(=O)(O)c1ccc(-c2c3nc(c(-c4ccc(S(=O)(=O)O)cc4)c4ccc([nH]4)c(-c4ccc(S(=O)(=O)O)cc4)c4nc(c(-c5ccc(S(=O)(=O)O)cc5)c5ccc2[nH]5)C=C4)C=C3)cc1.[Co]` [[TBSP—Co], 4,4′,4″,4′″-(porphine-5,10,15,20-tetrayl)tetrakis(benzenesulfonic acid)-Cobalt], in series [3], the “Normalized Endosulfan Concentration (%) α isomer” value stood at 2.8% and the “Normalized Endosulfan Concentration (%) β isomer” value was 0.0%.

On to `O=S(=O)(O)c1ccc(-c2c3nc(c(-c4ccc(S(=O)(=O)O)cc4)c4ccc([nH]4)c(-c4ccc(S(=O)(=O)O)cc4)c4nc(c(-c5ccc(S(=O)(=O)O)cc5)c5ccc2[nH]5)C=C4)C=C3)cc1.[Ni]` [[TBSP—Ni], 4,4′,4″,4′″-(porphine-5,10,15,20-tetrayl)tetrakis(benzenesulfonic acid)-Nickel], for which the “Normalized Endosulfan Concentration (%) α isomer” value in series [3] worked out at 1.3%. In addition, the “Normalized Endosulfan Concentration (%) β isomer” value in series [3] was determined as 0.0%. Further, the “Adsorption (%) of (ETM) after 10 days” value was determined as 71.68 ± 2.31% in series [4], 59.44 ± 1.21% in series [5] and 95.50 ± 0.44% in series [6]. Besides, the “Desorption (%) of (ETM) after 10 days” value stood at 21.22 ± 2.55% in series [4], 40.17 ± 5.51% in series [5] and 8.57 ± 1.28% in series [6].

Turning to `C[n+]1ccc(-c2c3nc(c(-c4cc[n+](C)cc4)c4ccc([n-]4)c(-c4cc[n+](C)cc4)c4nc(c(-c5cc[n+](C)cc5)c5ccc2[n-]5)C=C4)C=C3)cc1.[Co+2]` [[TMPyP—Co], tetramethylpyridilporphyrin-Cobalt [5,10,15,20-tetrakis(1-methyl-4-pyridinio)-porphine-Cobalt]], in series [3], the “Normalized Endosulfan Concentration (%) α isomer” value was determined as 1.2% and the “Normalized Endosulfan Concentration (%) β isomer” value was found to be 0.0%.

Take `C[n+]1ccc(-c2c3nc(c(-c4cc[n+](C)cc4)c4ccc([n-]4)c(-c4cc[n+](C)cc4)c4nc(c(-c5cc[n+](C)cc5)c5ccc2[n-]5)C=C4)C=C3)cc1.[Fe+2]` [[TMPyP—Fe], tetramethylpyridilporphyrin-Iron [5,10,15,20-tetrakis(1-methyl-4-pyridinio)-porphine-Iron]]: in series [3], the “Normalized Endosulfan Concentration (%) α isomer” value came out at 40.7% and the “Normalized Endosulfan Concentration (%) β isomer” value came out at 66.7%.

Regarding `C[n+]1ccc(-c2c3nc(c(-c4cc[n+](C)cc4)c4ccc([n-]4)c(-c4cc[n+](C)cc4)c4nc(c(-c5cc[n+](C)cc5)c5ccc2[n-]5)C=C4)C=C3)cc1.[Ni+2]` [[TMPyP—Ni], tetramethylpyridilporphyrin-Nickel [5,10,15,20-tetrakis(1-methyl-4-pyridinio)-porphine-Nickel]], in series [3], the “Normalized Endosulfan Concentration (%) α isomer” value was 0.0% and the “Normalized Endosulfan Concentration (%) β isomer” value is reported as 0.0%.

On to `Oc1ccc(-c2c3nc(c(-c4ccc(O)cc4)c4ccc([n-]4)c(-c4ccc(O)cc4)c4nc(c(-c5ccc(O)cc5)c5ccc2[n-]5)C=C4)C=C3)cc1.[Co+2]` [[TP(OH)P—Co], tetrahydroxyphenylporphyrine-Cobalt [5,10,15,20-tetrakis(4-hydroxyphenyl)-21H,23H-porphine-Cobalt]], for which, in series [3], the “Normalized Endosulfan Concentration (%) α isomer” value is on record as 8.3% and the “Normalized Endosulfan Concentration (%) β isomer” value is on record as 12.3%.

Turning to `Oc1ccc(-c2c3nc(c(-c4ccc(O)cc4)c4ccc([n-]4)c(-c4ccc(O)cc4)c4nc(c(-c5ccc(O)cc5)c5ccc2[n-]5)C=C4)C=C3)cc1.[Ni+2]` [[TP(OH)P—Ni], tetrahydroxyphenylporphyrine-Nickel [5,10,15,20-tetrakis(4-hydroxyphenyl)-21H,23H-porphine-Nickel]], in series [3], the “Normalized Endosulfan Concentration (%) α isomer” value is 8.3% and the “Normalized Endosulfan Concentration (%) β isomer” value is recorded as 9.3%.

For the compound hematoporphyrin-Cobalt, in series [3], the “Normalized Endosulfan Concentration (%) α isomer” value was found to be 9.4% and the “Normalized Endosulfan Concentration (%) β isomer” value turned out to be 9.7%. For the same compound, in series [4], the “Adsorption (%) of (ETM) after 10 days” value is on record as 12.80 ± 1.2% and the “Desorption (%) of (ETM) after 10 days” value came out at 5.87 ± 0.32%. For the same compound, in series [5], the “Adsorption (%) of (ETM) after 10 days” value amounted to 45.28 ± 1.85% and the “Desorption (%) of (ETM) after 10 days” value turned out to be 12.65 ± 0.67%. For the same compound, in series [6], the “Adsorption (%) of (ETM) after 10 days” value worked out at 100% and the “Desorption (%) of (ETM) after 10 days” value worked out at 0%.

The values are drawn from patent publication US8580711B2, “Decreasing or preventing sub-surface geological matter contamination by agrochemicals” (Yeda Research and Development Co. Ltd., priority 2005, dated 2013).
